Calls of active or inactive are those of the source. The rule behind the calls is not given here.
What was measured:
[1] = molecular target: T1, Solute carrier family 22 member 12 (Homo sapiens, UniProt Q96S37); experiment: Inhibition of URAT1(unknown origin)
T1 sequence (Q96S37 whole entry): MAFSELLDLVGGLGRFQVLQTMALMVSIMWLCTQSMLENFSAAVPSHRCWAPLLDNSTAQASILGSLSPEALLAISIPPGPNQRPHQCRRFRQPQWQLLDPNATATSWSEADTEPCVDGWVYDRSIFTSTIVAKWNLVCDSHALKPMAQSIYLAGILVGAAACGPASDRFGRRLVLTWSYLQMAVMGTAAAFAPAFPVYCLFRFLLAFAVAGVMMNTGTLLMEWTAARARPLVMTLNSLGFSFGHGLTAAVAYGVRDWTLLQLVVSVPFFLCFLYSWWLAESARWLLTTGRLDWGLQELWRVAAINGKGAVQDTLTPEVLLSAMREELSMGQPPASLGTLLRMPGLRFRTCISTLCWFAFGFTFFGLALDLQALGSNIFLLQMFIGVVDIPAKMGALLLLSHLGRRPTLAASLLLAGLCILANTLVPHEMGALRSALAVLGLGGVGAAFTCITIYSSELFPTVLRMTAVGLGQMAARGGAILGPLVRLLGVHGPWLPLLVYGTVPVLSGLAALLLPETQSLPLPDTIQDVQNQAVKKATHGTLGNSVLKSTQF

[2] = molecular target: T2, Xanthine dehydrogenase/oxidase (Homo sapiens, UniProt P47989); experiment: Inhibition of XOD (unknown origin)
[3] = molecular target: T2, Xanthine dehydrogenase/oxidase; experiment: Inhibition of XOD (unknown origin) using xanthine as substrate at 1 uM preincubated for 30 mins followed by xanthine addition measured after 30 mins by microplate reader relative to control; details: 0.5 h, time 60 min
Rattus norvegicus [4] = experiment: Antiarthritic activity against MSU-induced Sprague-Dawley rat OA model assessed as toe swelling volume variation at 1 mg/kg, ig administered for 3 days; type: functional, organism-based; details: time 3.0 day
Rattus norvegicus [5] = experiment: Antiarthritic activity against MSU-induced Sprague-Dawley rat OA model assessed as dysfunction index at 1 mg/kg, ig administered for 3 days; type: functional, organism-based; details: time 3.0 day
Rattus norvegicus [6] = experiment: Antiarthritic activity against MSU-induced Sprague-Dawley rat OA model assessed as dysfunction index at 10 mg/kg, ig administered for 3 days; type: functional; details: time 3 day
Rattus norvegicus [7] = experiment: Antiarthritic activity against MSU-induced Sprague-Dawley rat OA model assessed as reduction of serum TNF-alpha protein expression level at 10 mg/kg, ig administered for 3 days by ELISA; type: functional, organism-based; details: time 3.0 day
Rattus norvegicus [8] = experiment: Antiarthritic activity against MSU-induced Sprague-Dawley rat OA model assessed as reduction in NLRP3 mRNA expression level in tissue joint at 10 mg/kg, ig administered for 3 days by qRT-PCR analysis; type: functional, organism-based; details: time 3.0 day
Rattus norvegicus [9] = experiment: Antiarthritic activity against MSU-induced Sprague-Dawley rat OA model assessed as inflammation index at 1 mg/kg, ig administered for 3 days; type: functional, organism-based; details: time 3.0 day
Rattus norvegicus [10] = experiment: Antiarthritic activity against MSU-induced Sprague-Dawley rat OA model assessed as reduction in ASC mRNA expression level in tissue joint at 10 mg/kg, ig administered for 3 days by qRT-PCR analysis; type: functional, organism-based; details: time 3.0 day
Rattus norvegicus [11] = experiment: Antiarthritic activity against MSU-induced Sprague-Dawley rat OA model assessed as inflammation index at 10 mg/kg, ig administered for 3 days; type: functional; details: time 3 day
Rattus norvegicus [12] = experiment: Antiarthritic activity against MSU-induced Sprague-Dawley rat OA model assessed as toe swelling volume variation at 10 mg/kg, ig administered for 3 days; type: functional; details: time 3 day
Rattus norvegicus [13] = experiment: Antiarthritic activity against MSU-induced Sprague-Dawley rat OA model assessed as reduction in Caspase-1 mRNA expression level in tissue joint at 10 mg/kg, ig administered for 3 days by qRT-PCR analysis; type: functional, organism-based; details: time 3.0 day
Rattus norvegicus [14] = experiment: Antiarthritic activity against MSU-induced Sprague-Dawley rat OA model assessed as dysfunction index at 20 mg/kg, ig administered for 3 days; type: functional; details: time 3 day
RAW264.7 [15] = experiment: Antiinflammatory activity in MSU-induced mouse RAW264.7 cells assessed as decrease in IL-1beta expression preincubated for 2 hrs followed by MSU stimulation and measured after 12 hrs by ELISA; type: functional, cell-based; details: dose 1-10 µM, time 14.0 hrs
Rattus norvegicus [16] = experiment: Antiarthritic activity against MSU-induced Sprague-Dawley rat OA model assessed as inflammation index at 20 mg/kg, ig administered for 3 days; type: functional; details: time 3 day
Rattus norvegicus [17] = experiment: Antiarthritic activity against MSU-induced Sprague-Dawley rat OA model assessed as reduction in ASC mRNA expression level in tissue joint at 5 to 20 mg/kg, ig administered for 3 days by qRT-PCR analysis; type: functional, organism-based; details: dose 5-20 mg/kg, time 3.0 day
Mus musculus [18] = experiment: Hypouricemic activity in hypoxanthine/potassium oxonate-induced hyperuricemic Kunming mouse model assessed as decrease in serum uric acid level at 5 to 20 mg/kg, po administered for 7 days measured 4 hrs post last dose by biochemical analyzer; type: functional, organism-based; details: dose 5-20 mg/kg, time 7.0 day
Mus musculus [19] = experiment: Hypouricemic activity in hypoxanthine/potassium oxonate-induced hyperuricemic Kunming mouse model assessed as decrease in serum XOD level at 5 to 20 mg/kg, po administered for 7 days measured 4 hrs post last dose by automatic biochemical analyzer; type: functional, organism-based; details: dose 5-20 mg/kg, time 7.0 day
[20] = molecular target: T3, Solute carrier family 2, facilitated glucose transporter member 9 (Homo sapiens) (UniProt Q9NRM0); experiment: Inhibition of GLUT9 (unknown origin) expressed in HEK293T cells assessed as effect on uric acid induced current at 10 uM; type: cell-based
T3 sequence (whole entry): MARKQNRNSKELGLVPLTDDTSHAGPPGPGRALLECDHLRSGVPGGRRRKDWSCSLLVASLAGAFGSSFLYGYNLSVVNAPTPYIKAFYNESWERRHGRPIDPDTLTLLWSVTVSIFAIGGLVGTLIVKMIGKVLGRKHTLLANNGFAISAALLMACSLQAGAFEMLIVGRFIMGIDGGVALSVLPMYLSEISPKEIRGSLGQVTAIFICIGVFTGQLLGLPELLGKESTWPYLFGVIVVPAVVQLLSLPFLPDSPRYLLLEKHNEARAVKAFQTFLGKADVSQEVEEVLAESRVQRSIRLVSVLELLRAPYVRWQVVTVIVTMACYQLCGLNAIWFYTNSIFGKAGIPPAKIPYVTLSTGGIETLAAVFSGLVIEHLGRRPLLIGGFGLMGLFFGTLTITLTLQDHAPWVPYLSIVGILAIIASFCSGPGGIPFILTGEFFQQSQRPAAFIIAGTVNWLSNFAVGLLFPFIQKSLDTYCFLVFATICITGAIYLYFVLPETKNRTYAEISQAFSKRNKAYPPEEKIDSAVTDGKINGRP

RAW264.7 [21] = experiment: Antiinflammatory activity in MSU-induced mouse RAW264.7 cells assessed as decrease in IL-1beta mRNA expression at 1 to 10 uM preincubated for 2 hrs followed by MSU stimulation and measured after 12 hrs by qRT-PCR analysis; type: functional, cell-based; details: dose 1-10 µM, time 14.0 hrs
Rattus norvegicus [22] = experiment: Antiarthritic activity against MSU-induced Sprague-Dawley rat OA model assessed as reduction in NLRP3 mRNA expression level in tissue joint at 5 to 20 mg/kg, ig administered for 3 days by qRT-PCR analysis; type: functional, organism-based; details: dose 5-20 mg/kg, time 3.0 day
[23] = molecular target: T1, Solute carrier family 22 member 12; experiment: Inhibition of URAT1 (unknown origin) expressed in HEK293T cells assessed as reduction in 14C-uric acid uptake at 10 uM; type: cell-based
Rattus norvegicus [24] = experiment: Antiarthritic activity against MSU-induced Sprague-Dawley rat OA model assessed as dysfunction index at 5 mg/kg, ig administered for 3 days; type: functional; details: time 3 day
Rattus norvegicus [25] = experiment: Antiarthritic activity against MSU-induced Sprague-Dawley rat OA model assessed as reduction of serum IL-1beta protein expression level at 10 mg/kg, ig administered for 3 days by ELISA; type: functional, organism-based; details: time 3.0 day
Rattus norvegicus [26] = experiment: Antiarthritic activity against MSU-induced Sprague-Dawley rat OA model assessed as inflammation index at 5 mg/kg, ig administered for 3 days; type: functional; details: time 3 day
Mus musculus [27] = experiment: Hypouricemic activity in hypoxanthine/potassium oxonate-induced hyperuricemic Kunming mouse model assessed as decrease in uric acid level in urine at 5 to 20 mg/kg, po administered for 7 days measured 4 hrs post last dose by automatic biochemical analyzer; type: functional, organism-based; details: dose 5-20 mg/kg, time 7.0 day
[28] = molecular target: T2, Xanthine dehydrogenase/oxidase; experiment: Inhibition of XOD (unknown origin) using xanthine as substrate preincubated for 30 mins followed by xanthine addition measured after 30 mins by microplate reader
Rattus norvegicus [29] = experiment: Antiarthritic activity against MSU-induced Sprague-Dawley rat OA model assessed as reduction of serum IL-1beta protein expression level at 5 to 20 mg/kg, ig administered for 3 days by ELISA; type: functional, organism-based; details: dose 5-20 mg/kg, time 3.0 day
RAW264.7 [30] = experiment: Antiinflammatory activity in MSU-induced mouse RAW264.7 cells assessed as decrease in TNF-alpha mRNA expression at 1 to 10 uM preincubated for 2 hrs followed by MSU stimulation and measured after 12 hrs by qRT-PCR analysis; type: functional, cell-based; details: dose 1-10 µM, time 14.0 hrs
Rattus norvegicus [31] = experiment: Antiarthritic activity against MSU-induced Sprague-Dawley rat OA model assessed as toe swelling volume variation at 5 mg/kg, ig administered for 3 days; type: functional; details: time 3 day
Rattus norvegicus [32] = experiment: Antiarthritic activity against MSU-induced Sprague-Dawley rat OA model assessed as toe swelling volume variation at 20 mg/kg, ig administered for 3 days; type: functional; details: time 3 day
Rattus norvegicus [33] = experiment: Antiarthritic activity against MSU-induced Sprague-Dawley rat OA model assessed as reduction of serum TNF-alpha protein expression level at 5 to 20 mg/kg, ig administered for 3 days by ELISA; type: functional, organism-based; details: dose 5-20 mg/kg, time 3.0 day
RAW264.7 [34] = experiment: Antiinflammatory activity in MSU-induced mouse RAW264.7 cells assessed as decrease in TNF-alpha expression preincubated for 2 hrs followed by MSU stimulation and measured after 12 hrs by ELISA; type: functional, cell-based; details: dose 1-10 µM, time 14.0 hrs
Rattus norvegicus [35] = experiment: Antiarthritic activity against MSU-induced Sprague-Dawley rat OA model assessed as reduction in caspase-1 mRNA expression level in tissue joint at 5 to 20 mg/kg, ig administered for 3 days by qRT-PCR analysis; type: functional, organism-based; details: dose 5-20 mg/kg, time 3.0 day
Mus musculus [36] = experiment: Hypouricemic activity in hypoxanthine/potassium oxonate-induced hyperuricemic Kunming mouse model assessed as decrease in liver XOD level at 5 to 20 mg/kg, po administered for 7 days measured 4 hrs post last dose by automatic biochemical analyzer; type: functional, organism-based; details: dose 5-20 mg/kg, time 7.0 day

T2 sequence (P47989 whole entry): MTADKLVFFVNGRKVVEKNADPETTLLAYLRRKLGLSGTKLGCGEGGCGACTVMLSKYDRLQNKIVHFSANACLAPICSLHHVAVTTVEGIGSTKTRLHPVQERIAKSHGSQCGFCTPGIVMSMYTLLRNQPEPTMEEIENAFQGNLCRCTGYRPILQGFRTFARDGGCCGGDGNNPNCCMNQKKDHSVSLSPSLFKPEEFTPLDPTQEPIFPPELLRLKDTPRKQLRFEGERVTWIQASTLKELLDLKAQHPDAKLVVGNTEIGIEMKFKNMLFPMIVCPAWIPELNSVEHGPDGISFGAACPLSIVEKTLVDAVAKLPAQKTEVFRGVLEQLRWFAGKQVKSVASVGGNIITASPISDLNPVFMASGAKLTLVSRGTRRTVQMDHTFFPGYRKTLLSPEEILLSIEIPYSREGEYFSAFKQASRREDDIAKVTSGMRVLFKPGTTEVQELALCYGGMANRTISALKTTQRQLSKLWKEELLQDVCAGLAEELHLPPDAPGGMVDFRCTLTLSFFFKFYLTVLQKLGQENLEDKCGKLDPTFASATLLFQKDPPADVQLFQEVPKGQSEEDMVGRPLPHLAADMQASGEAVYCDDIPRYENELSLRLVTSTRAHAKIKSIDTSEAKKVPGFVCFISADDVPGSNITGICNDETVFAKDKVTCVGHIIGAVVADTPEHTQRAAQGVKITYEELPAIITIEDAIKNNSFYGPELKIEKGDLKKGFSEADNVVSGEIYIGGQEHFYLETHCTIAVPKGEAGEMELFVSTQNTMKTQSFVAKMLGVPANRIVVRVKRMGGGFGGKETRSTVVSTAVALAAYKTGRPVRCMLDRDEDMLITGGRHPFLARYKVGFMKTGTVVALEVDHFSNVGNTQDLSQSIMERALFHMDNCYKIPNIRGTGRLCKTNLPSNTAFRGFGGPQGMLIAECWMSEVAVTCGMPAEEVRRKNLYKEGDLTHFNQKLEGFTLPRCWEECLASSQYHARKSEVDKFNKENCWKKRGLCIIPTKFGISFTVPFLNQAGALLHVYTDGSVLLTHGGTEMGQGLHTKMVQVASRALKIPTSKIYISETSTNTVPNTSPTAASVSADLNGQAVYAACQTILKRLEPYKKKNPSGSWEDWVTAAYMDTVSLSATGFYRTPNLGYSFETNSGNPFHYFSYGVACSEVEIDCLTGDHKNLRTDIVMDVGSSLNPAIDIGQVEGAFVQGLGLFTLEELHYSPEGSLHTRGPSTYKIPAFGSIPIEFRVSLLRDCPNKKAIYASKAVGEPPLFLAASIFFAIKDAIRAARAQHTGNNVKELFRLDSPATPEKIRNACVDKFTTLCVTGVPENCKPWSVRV

SMILES: O=c1c(O)c(-c2ccc(O)cc2O)oc2cc(O)cc(O)c12 [MORIN]
- Ki [1]: 2 µM
- IC50 [2]: 25 µM

SMILES: CC1(C)C=Cc2c(ccc3c2O[C@H]2c4ccc(O)cc4OC[C@@H]32)O1 [PHASEOLIN]
- inhibition at 1 µM [3]: < 20%

SMILES: COc1cc2c(c(OC)c1OC)-c1ccc(OC)c(=O)cc1[C@@H](NC(C)=O)CC2 [COLCHICINE]
- Activity (Rattus norvegicus [4]): Active
- Activity (Rattus norvegicus [5]): Active
- Activity_index (Rattus norvegicus [6]): 0
- Activity (Rattus norvegicus [7]): Active
- Activity (Rattus norvegicus [8]): Active
- Activity (Rattus norvegicus [9]): Active
- Activity (Rattus norvegicus [10]): Active
- Activity_index (Rattus norvegicus [11]): 0.6
- Activity (Rattus norvegicus [12]): 0.03 mL
- Activity (Rattus norvegicus [13]): Active

SMILES: COc1cc2c(cc1OC)C(Cc1ccc(O)cc1)N(C)CC2 (stereo unspecified)
- inhibition at 1 µM [3]: < 20%

SMILES: CC(C)=CCc1c(O)cc(-c2cc3ccc(O)cc3o2)cc1O [MORACIN C]
- Activity_index (Rattus norvegicus [14]): 0
- Activity (RAW264.7 [15]): Dose-Dependent Effect
- Activity_index (Rattus norvegicus [16]): 0.6
- Activity (Rattus norvegicus [17]): Active
- Activity (Mus musculus [18]): Active
- Activity (Mus musculus [19]): Active
- inhibition [20]: inactive
- Activity (RAW264.7 [21]): Active
- Activity (Rattus norvegicus [4]): Active
- Activity (Rattus norvegicus [5]): Active
- Activity (Rattus norvegicus [22]): Active
- inhibition (INH) [23]: Not Active
- Activity_index (Rattus norvegicus [24]): 0
- Activity (Rattus norvegicus [25]): Active
- Activity_index (Rattus norvegicus [6]): 0
- Activity_index (Rattus norvegicus [26]): 1
- Activity (Mus musculus [27]): inactive
- IC50 [28]: 0.25 µM
- Activity (Rattus norvegicus [29]): Active
- Activity (RAW264.7 [30]): Active
- Activity (Rattus norvegicus [31]): 0.16 mL
- Activity (Rattus norvegicus [32]): 0.06 mL
- Activity (Rattus norvegicus [9]): Active
- Activity (Rattus norvegicus [33]): Active
- Activity (RAW264.7 [34]): Dose-Dependent Effect
- Activity (Rattus norvegicus [35]): Active
- Activity_index (Rattus norvegicus [11]): 1
- Activity (Rattus norvegicus [12]): 0.1 mL
- Activity (Mus musculus [36]): Active
- inhibition at 1 µM [3]: 70%

SMILES: COc1ccc2c(=O)c(-c3ccc(O)cc3)coc2c1 [ISOFORMONENTIN]
- IC50 [28]: 13 µM
- inhibition at 1 µM [3]: 25%

From ChEMBL document CHEMBL5370574, “Discovery and Characterization of Moracin C as an Anti-Gouty Arthritis/Hyperuricemia Candidate by Docking-Based Virtual Screening and Pharmacological Evaluation” (J Nat Prod, 2023)
